Measurements published in ChEMBL document CHEMBL1122981, “Specific inhibition of benzodiazepine receptor binding by some N-(indol-3-ylglyoxylyl)amino acid derivatives” (J Med Chem, 1985).

Columns and labels:
[1] = molecular target: GABA-A receptor; anion channel; assay: Inhibition of [3H]flunitrazepam binding to GABA-A central Benzodiazepine receptor of bovine brain membranes; assay type: cell membranes, Bos taurus
[2] = molecular target: GABA-A receptor; anion channel (Bos taurus) (UniProt P10063+P08220+P20237+P08219+P10064+P22300); assay: Inhibition of specific [3H]flunitrazepam binding to benzodiazepine receptor at 250 uM; assay type: protein-complex assay

CCOC(=O)C(Cc1ccc(O)cc1)NC(=O)C(=O)c1c[nH]c2ccc(Cl)cc12 (stereo not drawn)
IC50 [1]: 80 µM | inhibition [2]: 89%

CCOC(=O)C(NC(=O)C(=O)c1c[nH]c2ccc(OC)cc12)C(C)C (stereo not drawn)
inhibition [2]: 66%

CCOC(=O)C(Cc1c[nH]c2ccccc12)NC(=O)C(=O)c1c[nH]c2ccc(Br)cc12 (stereo not drawn)
IC50 [1]: 22 µM | inhibition [2]: 100%

O=C(NC(Cc1c[nH]c2cc([N+](=O)[O-])ccc12)C(=O)O)C(=O)c1c[nH]c2ccccc12 (stereo not drawn)
inhibition [2]: 31%

CC(C)C(NC(=O)C(=O)c1c[nH]c2ccc(Cl)cc12)C(=O)O (stereo not drawn)
inhibition [2]: 68%

CCOC(=O)C(C)NC(=O)C(=O)c1c[nH]c2ccc([N+](=O)[O-])cc12 (stereo not drawn)
IC50 [1]: 0.2 µM | inhibition [2]: 100%

O=C(NC(Cc1ccc(O)cc1)C(=O)O)C(=O)c1c[nH]c2ccccc12 (stereo not drawn)
inhibition [2]: 27%

CCOC(=O)C(Cc1c[nH]c2ccccc12)NC(=O)C(=O)c1c[nH]c2ccc([N+](=O)[O-])cc12 (stereo not drawn)
inhibition [2]: 59%

CC(C)C(NC(=O)C(=O)c1c[nH]c2ccc([N+](=O)[O-])cc12)C(=O)O (stereo not drawn)
IC50 [1]: 60 µM | inhibition [2]: 83%

CC(C)C(NC(=O)C(=O)c1c[nH]c2ccc(Br)cc12)C(=O)O (stereo not drawn)
inhibition [2]: 72%

CCOC(=O)C(Cc1ccc(O)cc1)NC(=O)C(=O)c1c[nH]c2ccc(Br)cc12 (stereo not drawn)
inhibition [2]: 68%

CC(NC(=O)C(=O)c1c[nH]c2ccc(Cl)cc12)C(=O)O (stereo not drawn)
IC50 [1]: 22 µM | inhibition [2]: 93%

O=C(NC(Cc1ccc(O)cc1)C(=O)O)C(=O)c1c[nH]c2ccc(Cl)cc12 (stereo not drawn)
inhibition [2]: 67%

O=C(NC(Cc1c[nH]c2ccccc12)C(=O)O)C(=O)c1c[nH]c2ccc(Br)cc12 (stereo not drawn)
inhibition [2]: 66%

CCOC(=O)C(NC(=O)C(=O)c1c[nH]c2ccccc12)C(C)C (stereo not drawn)
inhibition [2]: 77%

CCOC(=O)C(Cc1ccccc1)NC(=O)C(=O)c1c[nH]c2ccc(OC)cc12 (stereo not drawn)
inhibition [2]: 60%

O=C(NC(Cc1ccc(O)cc1)C(=O)O)C(=O)c1c[nH]c2ccc([N+](=O)[O-])cc12 (stereo not drawn)
IC50 [1]: 75 µM | inhibition [2]: 81%

CCOC(=O)C(Cc1c[nH]c2cc([N+](=O)[O-])ccc12)NC(=O)C(=O)c1c[nH]c2ccccc12 (stereo not drawn)
inhibition [2]: 48%

CCOC(=O)C(NC(=O)C(=O)c1c[nH]c2ccc(Br)cc12)C(C)C (stereo not drawn)
inhibition [2]: 88%

CCOC(=O)C(Cc1c[nH]c2ccccc12)NC(=O)C(=O)c1c[nH]c2ccc(Cl)cc12 (stereo not drawn)
inhibition [2]: 55%

COC(=O)C(Cc1ccc(O)cc1)NC(=O)C(=O)c1c[nH]c2ccc([N+](=O)[O-])cc12 (stereo not drawn)
IC50 [1]: 20 µM | inhibition [2]: 100%

CCOC(=O)C(C)NC(=O)C(=O)c1c[nH]c2ccc(Br)cc12 (stereo not drawn)
IC50 [1]: 4.8 µM | inhibition [2]: 100%

O=C(NC(Cc1ccccc1)C(=O)O)C(=O)c1c[nH]c2ccc(Br)cc12 (stereo not drawn)
inhibition [2]: 62%

COc1ccc2[nH]cc(C(=O)C(=O)NC(C(=O)O)C(C)C)c2c1 (stereo not drawn)
inhibition [2]: 12%

CNC1=Nc2ccc(Cl)cc2C(c2ccccc2)=[N+]([O-])C1 [CHLORDIAZEPOXIDE]
IC50 [1]: 1.1 µM

COc1ccc2[nH]cc(C(=O)C(=O)NC(Cc3ccccc3)C(=O)O)c2c1 (stereo not drawn)
inhibition [2]: 38%

CCOC(=O)CNC(=O)C(=O)c1c[nH]c2ccccc12
inhibition [2]: 84%

CC(C)C(NC(=O)C(=O)c1c[nH]c2ccccc12)C(=O)O (stereo not drawn)
inhibition [2]: 28%

O=C(NC(Cc1ccc(O)cc1)C(=O)O)C(=O)c1c[nH]c2ccc(Br)cc12 (stereo not drawn)
inhibition [2]: 37%

CN1C(=O)CN=C(c2ccccc2)c2cc(Cl)ccc21 [DIAZEPAM]
IC50 [1]: 0.041 µM

CCOC(=O)C(Cc1ccccc1)NC(=O)C(=O)c1c[nH]c2ccc(Br)cc12 (stereo not drawn)
inhibition [2]: 65%

CCOC(=O)C(NC(=O)C(=O)c1c[nH]c2ccc(Cl)cc12)C(C)C (stereo not drawn)
inhibition [2]: 62%

CC(NC(=O)C(=O)c1c[nH]c2ccc([N+](=O)[O-])cc12)C(=O)O (stereo not drawn)
IC50 [1]: 6.2 µM | inhibition [2]: 94%

O=C(NC(Cc1c[nH]c2ccccc12)C(=O)O)C(=O)c1c[nH]c2ccccc12 (stereo not drawn)
inhibition [2]: 11%

CCOC(=O)CNC(=O)C(=O)c1c[nH]c2ccc(Cl)cc12
IC50 [1]: 5.4 µM | inhibition [2]: 100%

COC(=O)C(Cc1ccc(O)cc1)NC(=O)C(=O)c1c[nH]c2ccccc12 (stereo not drawn)
inhibition [2]: 50%

O=C(NC(Cc1c[nH]c2ccccc12)C(=O)O)C(=O)c1c[nH]c2ccc(Cl)cc12 (stereo not drawn)
inhibition [2]: 61%

CCOC(=O)C(Cc1c[nH]c2ccccc12)NC(=O)C(=O)c1c[nH]c2ccccc12 (stereo not drawn)
inhibition [2]: 70%

O=C(O)CNC(=O)C(=O)c1c[nH]c2ccccc12
inhibition [2]: 20%

CCOC(=O)CNC(=O)C(=O)c1c[nH]c2ccc(Br)cc12
IC50 [1]: 2 µM | inhibition [2]: 100%

CCOC(=O)C(C)NC(=O)C(=O)c1c[nH]c2ccccc12 (stereo not drawn)
inhibition [2]: 80%

O=C1CN=C(c2ccccc2)c2cc([N+](=O)[O-])ccc2N1 [NITRAZEPAM]
IC50 [1]: 0.038 µM

CCOC(=O)C(C)NC(=O)C(=O)c1c[nH]c2ccc(Cl)cc12 (stereo not drawn)
IC50 [1]: 0.5 µM | inhibition [2]: 100%

CC(NC(=O)C(=O)c1c[nH]c2ccccc12)C(=O)O (stereo not drawn)
inhibition [2]: 72%

O=C(O)CNC(=O)C(=O)c1c[nH]c2ccc(Cl)cc12
IC50 [1]: 38 µM | inhibition [2]: 82%
